Test results as given in US8999974B2, “Acyl piperazine derivatives as TTX-S blockers” (Raqualia Pharma Inc., priority 2010, dated 2015).

Legend:
[1] = biological target: T1, human NaV1.3 (Homo sapiens, UniProt Q9NY46); assay: FRET assay (EFS, FDSS) on HEK293 cells expressing human NaV1.3 channels; assay type: cell-based; conditions: for IC50: FRET assay, HEK293 cells expressing human NaV1.3, read-out: IC50 against Nav1.3
T1 construct: expressed in transfected cells; host or cells: HEK293
Procedure, shortened: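 Membrane potential in HEK293 cells stably expressing human NaV1.3, read by FRET (CC2-DMPE 10 µM / DiSBAC2(3) 15 µM with 0.555 mM VABSC-1) after electrical field stimulation, in HEPES-buffered saline pH 7.4. Compounds added after dye loading at room temperature. IC50 from normalized 440 nm fluorescence ratios.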

[2] = biological target: T2, human Nav1.7 (Homo sapiens, UniProt Q15858); assay: FRET assay (EFS, FDSS) on CHO cells expressing human NaV1.7 channels; assay type: cell-based; conditions: for IC50: FRET assay, CHO cells expressing human NaV1.7, read-out: IC50 against Nav1.7
T2 construct: expressed in transfected cells; host or cells: CHO
T2 sequence (Q15858 whole entry): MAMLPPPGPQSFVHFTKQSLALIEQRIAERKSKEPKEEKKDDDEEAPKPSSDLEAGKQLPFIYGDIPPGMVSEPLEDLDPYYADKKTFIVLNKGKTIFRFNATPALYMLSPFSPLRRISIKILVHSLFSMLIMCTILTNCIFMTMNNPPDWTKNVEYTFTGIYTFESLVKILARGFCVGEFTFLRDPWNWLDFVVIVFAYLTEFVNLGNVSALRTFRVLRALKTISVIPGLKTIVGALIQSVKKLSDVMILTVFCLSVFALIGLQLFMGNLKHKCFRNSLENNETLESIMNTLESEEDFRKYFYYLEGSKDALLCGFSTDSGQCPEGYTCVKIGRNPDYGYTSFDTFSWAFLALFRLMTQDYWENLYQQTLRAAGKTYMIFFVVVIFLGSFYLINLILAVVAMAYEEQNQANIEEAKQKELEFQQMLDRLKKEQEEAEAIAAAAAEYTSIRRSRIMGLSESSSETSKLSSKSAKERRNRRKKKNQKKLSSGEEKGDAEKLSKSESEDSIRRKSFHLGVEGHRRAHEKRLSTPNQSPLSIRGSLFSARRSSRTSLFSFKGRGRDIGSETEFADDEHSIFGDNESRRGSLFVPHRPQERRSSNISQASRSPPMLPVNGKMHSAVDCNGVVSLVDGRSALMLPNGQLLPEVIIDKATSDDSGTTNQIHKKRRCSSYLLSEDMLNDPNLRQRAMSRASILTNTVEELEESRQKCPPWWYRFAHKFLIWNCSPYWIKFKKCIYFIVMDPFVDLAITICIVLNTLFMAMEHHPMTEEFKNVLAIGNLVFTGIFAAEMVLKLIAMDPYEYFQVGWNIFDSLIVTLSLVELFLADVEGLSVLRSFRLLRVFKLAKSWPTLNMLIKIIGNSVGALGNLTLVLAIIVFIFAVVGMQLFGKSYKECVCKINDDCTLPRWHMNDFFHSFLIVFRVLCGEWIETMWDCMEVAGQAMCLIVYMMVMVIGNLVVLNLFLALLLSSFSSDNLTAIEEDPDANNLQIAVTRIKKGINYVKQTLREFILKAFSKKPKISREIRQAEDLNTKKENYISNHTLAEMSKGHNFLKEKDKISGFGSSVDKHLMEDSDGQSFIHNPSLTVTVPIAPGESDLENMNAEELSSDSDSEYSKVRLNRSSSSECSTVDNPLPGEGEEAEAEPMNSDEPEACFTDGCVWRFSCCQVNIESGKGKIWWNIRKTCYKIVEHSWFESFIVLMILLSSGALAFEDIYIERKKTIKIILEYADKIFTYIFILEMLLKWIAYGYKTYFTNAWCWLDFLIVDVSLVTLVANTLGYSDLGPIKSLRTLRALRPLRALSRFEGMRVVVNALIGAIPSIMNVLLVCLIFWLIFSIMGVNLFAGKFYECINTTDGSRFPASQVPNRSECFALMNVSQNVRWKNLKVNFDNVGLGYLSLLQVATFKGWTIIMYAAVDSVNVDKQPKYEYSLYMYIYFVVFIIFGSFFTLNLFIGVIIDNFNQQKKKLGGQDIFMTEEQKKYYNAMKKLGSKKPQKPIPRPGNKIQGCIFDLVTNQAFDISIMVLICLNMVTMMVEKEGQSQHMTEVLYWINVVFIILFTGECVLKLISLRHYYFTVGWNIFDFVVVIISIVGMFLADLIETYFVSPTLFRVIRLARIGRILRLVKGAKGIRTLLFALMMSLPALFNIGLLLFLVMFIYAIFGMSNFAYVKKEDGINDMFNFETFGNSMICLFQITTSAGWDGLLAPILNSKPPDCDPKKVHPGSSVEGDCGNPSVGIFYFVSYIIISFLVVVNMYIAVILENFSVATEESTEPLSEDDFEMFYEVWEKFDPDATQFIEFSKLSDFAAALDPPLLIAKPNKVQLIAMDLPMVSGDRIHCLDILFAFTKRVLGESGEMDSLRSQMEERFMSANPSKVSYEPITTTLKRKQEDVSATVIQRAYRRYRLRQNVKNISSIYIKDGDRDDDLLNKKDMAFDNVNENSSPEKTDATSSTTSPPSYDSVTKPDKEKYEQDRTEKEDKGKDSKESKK
Method: This screen was used to determine the effects of compounds on human NaV1.3, human Nav1.7, and human Nav1.5 channels, utilising electrical field stimulation (EFS) system in 96-well plate format on FDSS (Hamamatsu Photonics) platform. The change of membrane potential was monitored with FRET dye pair, oxonol (DiSBAC2(3)) and coumarin (CC2-DMPE).
CHO cells expressing human NaV1.7 channels were grown in T225 flasks, in a 5% CO2 humidified incubator to about 80% confluence. Media composition consisted of HAM/F12 with Glutamax I, 10% FCS, 100 units/ml Penicillin and 100 microgram/ml Hygromycin.
Protocol: • Seeded each cell lines (1×10^5 cells/well) into poly-D-lysine coated 96-well plates prior to experimentation. • Incubated at 37° C. in 5% CO2 for 24 hours. • Washed each well with assay buffer (140 mM NaCl, 4.5 mM KCl, 10 mM D-Glucose, 2 mM CaCl2, 1 mM MgCl2, 10 mM HEPES, pH 7.4 adjusted with NaOH) twice. • Added 1st loading solution containing 10 microM CC2-DMPE and 0.06% Pluronic F-127 in assay buffer. • Incubated the plate at room temperature in dark for 1 hour. • Removed 1st loading solution and added 2nd loading solution containing 15 microM DiSBAC2(3), 0.555 mM VABSC-1 and 0.004% Pluronic F-127 in assay buffer. • Placed the plate under the dark at room temperature for 25 minutes. • Added compound solutions into the assay plate. • Set the assay plate in FDSS and placed an EFS device on the plate. • Measured EFS-induced fluorescent response by FDSS.
The data were analyzed and reported as normalized ratios of intensities measured at […]. The process of calculating these ratios was performed as follows:
[formula] This analysis was performed using a computerized specific program designed for FDSS generated data. Fluorescence ratio values were plotted using XLfit to determine an IC50 value for each compound.

[3] = comparison compound of WO 2008147864

T1 sequence (Q9NY46 whole entry): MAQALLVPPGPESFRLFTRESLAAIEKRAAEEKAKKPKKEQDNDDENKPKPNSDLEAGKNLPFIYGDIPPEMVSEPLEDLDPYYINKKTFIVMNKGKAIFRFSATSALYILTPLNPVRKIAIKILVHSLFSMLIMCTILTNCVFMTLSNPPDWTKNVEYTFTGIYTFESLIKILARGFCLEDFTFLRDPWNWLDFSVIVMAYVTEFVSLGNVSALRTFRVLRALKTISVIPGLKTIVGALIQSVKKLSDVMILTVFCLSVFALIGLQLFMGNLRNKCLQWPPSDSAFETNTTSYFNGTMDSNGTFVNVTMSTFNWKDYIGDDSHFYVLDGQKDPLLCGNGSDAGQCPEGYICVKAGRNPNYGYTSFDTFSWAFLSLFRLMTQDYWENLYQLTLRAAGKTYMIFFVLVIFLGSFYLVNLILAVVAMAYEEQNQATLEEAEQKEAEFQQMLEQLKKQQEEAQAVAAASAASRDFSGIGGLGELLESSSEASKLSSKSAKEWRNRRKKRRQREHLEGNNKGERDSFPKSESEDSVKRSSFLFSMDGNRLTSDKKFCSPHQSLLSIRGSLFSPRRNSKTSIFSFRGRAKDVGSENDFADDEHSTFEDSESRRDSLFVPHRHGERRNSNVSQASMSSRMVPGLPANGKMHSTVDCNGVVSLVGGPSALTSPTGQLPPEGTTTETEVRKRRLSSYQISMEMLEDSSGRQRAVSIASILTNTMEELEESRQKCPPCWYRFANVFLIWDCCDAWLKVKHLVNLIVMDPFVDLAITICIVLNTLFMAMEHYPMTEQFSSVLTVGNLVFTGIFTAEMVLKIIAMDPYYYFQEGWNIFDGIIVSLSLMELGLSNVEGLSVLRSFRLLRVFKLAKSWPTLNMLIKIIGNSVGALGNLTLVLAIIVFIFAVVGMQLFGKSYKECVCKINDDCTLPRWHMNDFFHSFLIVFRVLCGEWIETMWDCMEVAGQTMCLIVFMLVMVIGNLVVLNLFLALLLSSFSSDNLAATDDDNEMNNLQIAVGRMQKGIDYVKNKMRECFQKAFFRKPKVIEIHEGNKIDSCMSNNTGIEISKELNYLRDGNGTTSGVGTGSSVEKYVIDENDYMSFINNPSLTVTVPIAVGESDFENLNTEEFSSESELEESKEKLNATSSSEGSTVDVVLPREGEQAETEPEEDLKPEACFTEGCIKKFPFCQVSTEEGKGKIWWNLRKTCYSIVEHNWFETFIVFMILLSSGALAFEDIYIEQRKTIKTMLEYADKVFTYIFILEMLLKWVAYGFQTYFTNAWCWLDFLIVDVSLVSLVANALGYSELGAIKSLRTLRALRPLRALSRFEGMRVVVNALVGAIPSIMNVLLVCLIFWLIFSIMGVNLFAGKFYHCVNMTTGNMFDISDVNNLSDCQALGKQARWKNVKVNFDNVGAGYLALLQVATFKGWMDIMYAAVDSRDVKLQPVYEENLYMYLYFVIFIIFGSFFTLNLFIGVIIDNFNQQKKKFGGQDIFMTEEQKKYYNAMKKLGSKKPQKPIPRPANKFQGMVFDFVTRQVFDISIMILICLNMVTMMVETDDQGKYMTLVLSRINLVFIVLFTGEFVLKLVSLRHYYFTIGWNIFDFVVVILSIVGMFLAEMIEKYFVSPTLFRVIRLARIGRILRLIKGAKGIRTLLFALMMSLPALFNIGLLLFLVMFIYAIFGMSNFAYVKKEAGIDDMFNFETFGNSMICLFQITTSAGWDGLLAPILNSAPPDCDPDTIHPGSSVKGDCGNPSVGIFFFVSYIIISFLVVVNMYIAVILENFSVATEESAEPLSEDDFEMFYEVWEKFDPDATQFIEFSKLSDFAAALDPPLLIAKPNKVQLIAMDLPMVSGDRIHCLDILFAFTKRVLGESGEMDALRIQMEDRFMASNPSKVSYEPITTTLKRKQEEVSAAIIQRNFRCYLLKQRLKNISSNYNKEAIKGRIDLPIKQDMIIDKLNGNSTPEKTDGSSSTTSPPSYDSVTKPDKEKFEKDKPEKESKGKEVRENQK

SMILES	activity against NaV1.3 [1, 3]	activity against NaV1.7 [2, 3]	IC50 [1] [µM]	IC50 [2] [µM]
O=C(c1ccc2c(=O)n(CCc3ccccc3)c(=O)[nH]c2c1)N1CCN(c2ncccn2)CC1 [3-(2-phenylethyl)-7-[(4-pyrimidin-2-ylpiperazin-1-yl)carbonyl]quinazoline-2,4(1H,3H)-dione]	no activity	no activity	–	–
CC(C)COc1cc(N2CCN(C(=O)c3cccc(OC(F)(F)F)c3)CC2)ncn1 [Example 15, (4-(6-isobutoxypyrimidin-4-yl)piperazin-1-yl)(3-(trifluoromethoxy)phenyl)methanone]	–	–	< 3	< 3
CC(C)COc1cc(N2CCN(C(=O)c3nn(C)c4ccccc34)CC2)ncn1 [Example 22, (4-(6-isobutoxypyrimidin-4-yl)piperazin-1-yl)(1-methyl-1H-indazol-3-yl)methanone]	–	–	< 3	< 3
CC(C)COc1cc(N2CCN(C(=O)COc3ccc(F)cc3)CC2)ncn1 [Example 24, 2-(4-fluorophenoxy)-1-(4-(6-isobutoxypyrimidin-4-yl)piperazin-1-yl)ethanone]	–	–	< 3	< 3
CC(C)COc1cc(N2CCN(C(=O)CCn3ccc4ccccc43)CC2)ncn1 [Example 59, 3-(1H-indol-1-yl)-1-(4-(6-isobutoxypyrimidin-4-yl)piperazin-1-yl)propan-1-one]	–	–	< 3	< 3
COc1cccc(OCC(=O)N2CCN(c3cc(OCC(C)C)ncn3)CC2)c1 [Example 70, 1-(4-(6-isobutoxypyrimidin-4-yl)piperazin-1-yl)-2-(3-methoxyphenoxy)ethanone]	–	–	< 3	< 3
CC(C)COc1cc(N2CCN(C(=O)CNC(=O)c3ccc(OCC(F)(F)F)nc3)CC2)ncn1 [Example 74, N-(2-(4-(6-isobutoxypyrimidin-4-yl)piperazin-1-yl)-2-oxoethyl)-6-(2,2,2-trifluoroethoxy)nicotinamide]	–	–	< 3	< 3
CC(C)COc1cc(N2CCN(C(=O)CNC(=O)c3nn(C)c4ccccc34)CC2)ncn1 [Example 76, N-(2-(4-(6-isobutoxypyrimidin-4-yl)piperazin-1-yl)-2-oxoethyl)-1-methyl-1H-indazole-3-carboxamide]	–	–	–	< 3
CC(C)COc1cc(N2CCN(C(=O)COc3cccc4cccnc34)CC2)ncn1 [Example 77, 1-(4-(6-isobutoxypyrimidin-4-yl)piperazin-1-yl)-2-(quinolin-8-yloxy)ethanone]	–	–	< 3	< 3
CC(C)COc1cc(N2CCN(C(=O)c3cc4ccccc4s3)CC2)ncn1 [Example 86]	–	–	< 3	< 3
CC(C)COc1cc(N2CCN(C(=O)CCOc3ccc(F)cc3)CC2)ncn1 [Example 89, 3-(4-fluorophenoxy)-1-(4-(6-isobutoxypyrimidin-4-yl)piperazin-1-yl)propan-1-one]	–	–	< 3	< 3
CC(C)COc1cc(N2CCN(C(=O)c3cc(-c4ccccc4)on3)CC2)ncn1 [Example 90]	–	–	< 3	< 3
CC(C)COc1cc(N2CCN(C(=O)CNC3CCCCC3)CC2)ncn1 [Example 100, 2-(cyclohexylamino)-1-(4-(6-isobutoxypyrimidin-4-yl)piperazin-1-yl)ethanone]	–	–	–	< 3
CC(C)COc1cc(N2CCN(C(=O)Cc3c[nH]c4ccccc34)CC2)ncn1 [Example 102, 2-(1H-indol-3-yl)-1-(4-(6-isobutoxypyrimidin-4-yl)piperazin-1-yl)ethanone]	–	–	–	< 3
CC(C)COc1cc(N2CCN(C(=O)Cn3nc4ccccc4n3)CC2)ncn1 [Example 105, 2-(2H-benzo[d][1,2,3]triazol-2-yl)-1-(4-(6-isobutoxypyrimidin-4-yl)piperazin-1-yl)ethanone]	–	–	< 3	< 3
O=C(Cc1c[nH]c2ccc(F)cc12)N1CCN(c2cc(OCC(F)(F)F)ncn2)CC1 [Example 110, 2-(5-fluoro-1H-indol-3-yl)-1-(4-(6-(2,2,2-trifluoroethoxy)pyrimidin-4-yl)piperazin-1-yl)ethanone]	–	–	–	< 3
CC(C)COc1cc(N2CCN(C(=O)CSc3ccccc3)CC2)ncn1 [Example 120, 1-(4-(6-isobutoxypyrimidin-4-yl)piperazin-1-yl)-2-(phenylthio)ethanone]	–	–	< 3	< 3

SMILES	activity against NaV1.3 [1, 3]	activity against NaV1.7 [2, 3]	IC50 [1] [µM]	IC50 [2] [µM]
CC(C)COc1cc(N2CCN(C(=O)COc3ccc(F)c4cccnc34)CC2)ncn1 [Example 129, 2-((5-fluoroquinolin-8-yl)oxy)-1-(4-(6-isobutoxypyrimidin-4-yl)piperazin-1-yl)ethanone]	–	–	< 3	< 3
CC(C)COc1cc(N2CCN(C(=O)CCOc3ccccc3)CC2)ncn1 [Example 131, 1-(4-(6-isobutoxypyrimidin-4-yl)piperazin-1-yl)-3-phenoxypropan-1-one]	–	–	< 3	< 3
Cc1cccc(OCCC(=O)N2CCN(c3cc(OCC(C)C)ncn3)CC2)c1 [Example 132, 1-(4-(6-isobutoxypyrimidin-4-yl)piperazin-1-yl)-3-(m-tolyloxy)propan-1-one]	–	–	< 3	< 3
CC(C)COc1cc(N2CCN(C(=O)c3cc(-c4ccccc4)n(C)n3)CC2)ncn1 [Example 133, (4-(6-isobutoxypyrimidin-4-yl)piperazin-1-yl)(1-methyl-5-phenyl-1H-pyrazol-3-yl)methanone]	–	–	< 3	< 3
CC(C)COc1cc(N2CCN(C(=O)COc3cccc4[nH]ccc34)CC2)ncn1 [Example 137, 2-((1H-indol-4-yl)oxy)-1-(4-(6-isobutoxypyrimidin-4-yl)piperazin-1-yl)ethanone]	–	–	–	< 3
O=C(CCOc1ccc(F)cc1)N1CCN(c2cc(OCC(F)(F)F)ncn2)CC1 [Example 139, 3-(4-fluorophenoxy)-1-(4-(6-(2,2,2-trifluoroethoxy)pyrimidin-4-yl)piperazin-1-yl)propan-1-one]	–	–	< 3	< 3
CC(C)COc1cc(N2CCN(C(=O)COc3cccc4c3ccn4C)CC2)ncn1 [Example 141, 1-(4-(6-isobutoxypyrimidin-4-yl)piperazin-1-yl)-2-((1-methyl-1H-indol-4-yl)oxy)ethanone]	–	–	< 3	< 3
CC(C)COc1cc(N2CCN(C(=O)COc3ccccc3C(F)(F)F)CC2)ncn1 [Example 143, 1-(4-(6-isobutoxypyrimidin-4-yl)piperazin-1-yl)-2-(2-(trifluoromethyl)phenoxy)ethanone]	–	–	–	< 3
CC(C)COc1cc(N2CCN(C(=O)COc3cccc(OC(F)(F)F)c3)CC2)ncn1 [Example 145, 1-(4-(6-isobutoxypyrimidin-4-yl)piperazin-1-yl)-2-(3-(trifluoromethoxy)phenoxy)ethanone]	–	–	< 3	< 3
O=C(COc1cccc2cccnc12)N1CCN(c2cc(OCC(F)(F)F)ncn2)CC1 [Example 156, 2-(quinolin-8-yloxy)-1-(4-(6-(2,2,2-trifluoroethoxy)pyrimidin-4-yl)piperazin-1-yl)ethanone]	–	–	–	< 3
CC(C)COc1cc(N2CCN(C(=O)COc3ccc4ccccc4n3)CC2)ncn1 [Example 160, 1-(4-(6-isobutoxypyrimidin-4-yl)piperazin-1-yl)-2-(quinolin-2-yloxy)ethanone]	–	–	–	< 3
O=C(c1csc(-c2ccccc2)n1)N1CCN(c2cc(OCC(F)(F)F)ncn2)CC1 [Example 166, (2-phenylthiazol-4-yl)(4-(6-(2,2,2-trifluoroethoxy)pyrimidin-4-yl)piperazin-1-yl)methanone]	–	–	–	< 3
COc1ccccc1-c1cc(C(=O)N2CCN(c3cc(OCC(C)C)ncn3)CC2)[nH]n1 [Example 175]	–	–	–	< 3
CC(C)COc1cc(N2CCN(C(=O)Cn3ccc4ccccc4c3=O)CC2)ncn1 [Example 236, 2-(2-(4-(6-isobutoxypyrimidin-4-yl)piperazin-1-yl)-2-oxoethyl)isoquinolin-1(2H)-one]	–	–	–	< 3
O=C(c1cncn1-c1ccccc1C(F)(F)F)N1CCN(c2cc(OCC(F)(F)F)ncn2)CC1 [Example 243, (4-(6-(2,2,2-trifluoroethoxy)pyrimidin-4-yl)piperazin-1-yl)(1-(2-(trifluoromethyl)phenyl)-1H-imidazol-5-yl)methanone]	–	–	–	< 3
Cc1onc(-c2ccccc2)c1C(=O)N1CCN(c2cc(OCC(F)(F)F)ncn2)CC1 [Example 245, (5-methyl-3-phenylisoxazol-4-yl)(4-(6-(2,2,2-trifluoroethoxy)pyrimidin-4-yl)piperazin-1-yl)methanone]	–	–	–	< 3
